Laboratory results published in ChEMBL document CHEMBL1201862, “PubChem BioAssay data set” (2004).
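Dose response: 5 concentrations. Exposure: 48 h. Format: 96-well plates. Endpoint: linear interpolation; highest concentration if not reached. GI50 is the concentration that inhibits growth by half.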 Activity calls are given as the source filed them. Rule as the data show it: active = GI50 up to about 1.1 µM and inactive = higher.

What was measured:
Test in all cases: growth of human tumour cells (NCI), 48 h
MOLT-4 = tested on: MOLT-4
UACC-257 = tested on: UACC-257
M14 = tested on: M14
ACHN = tested on: ACHN
SK-OV-3 = tested on: SK-OV-3
LXFL 529 = tested on: LXFL 529
HCC 2998 = tested on: HCC 2998
DMS-114 = tested on: DMS-114
SK-MEL-28 = tested on: SK-MEL-28
IGROV-1 = tested on: IGROV-1
SF-295 = tested on: SF-295
COLO 205 = tested on: COLO 205
A549 = tested on: A549
HOP-62 = tested on: HOP-62
LOX IMVI = tested on: LOX IMVI
OVCAR-4 = tested on: OVCAR-4
OVCAR-5 = tested on: OVCAR-5
OVCAR-3 = tested on: OVCAR-3
SNB-78 = tested on: SNB-78
M19-MEL = tested on: M19-MEL
NCI-H23 = tested on: NCI-H23
786-0 = tested on: 786-0
SF-268 = tested on: SF-268
UACC-62 = tested on: UACC-62
SK-MEL-2 = tested on: SK-MEL-2
EKVX = tested on: EKVX
Malme-3M = tested on: Malme-3M
SN12C = tested on: SN12C
HL-60 = tested on: HL-60
KM12 = tested on: KM12
CCRF-CEM = tested on: CCRF-CEM
CAKI-1 = tested on: CAKI-1
SK-MEL-5 = tested on: SK-MEL-5
NCI-H522 = tested on: NCI-H522
SNB-75 = tested on: SNB-75
K562 = tested on: K562
KM-20L2 = tested on: KM-20L2
UO-31 = tested on: UO-31
XF498 = tested on: XF498
HT-29 = tested on: HT-29
SF-539 = tested on: SF-539
RPMI-8226 = tested on: RPMI-8226
A498 = tested on: A498
HCT-116 = tested on: HCT-116
SW-620 = tested on: SW-620
OVCAR-8 = tested on: OVCAR-8
TK-10 = tested on: TK-10
SNB-19 = tested on: SNB-19
U-251 = tested on: U-251
DLD-1 = tested on: DLD-1
DMS-273 = tested on: DMS-273
SR = tested on: SR
NCI-H226 = tested on: NCI-H226
RXF 393 = tested on: RXF 393
HOP-18 = tested on: HOP-18
NCI-H460 = tested on: NCI-H460
HOP-92 = tested on: HOP-92

Measured: GI50

CC(C)N(C(=O)C12C3C4C1C1C2C3C41C(=O)C(C)(C)C)C(C)C (stereo not given)
inactive: MOLT-4 26.7 µM | UACC-257 95.3 µM | M14 > 100 µM | ACHN > 100 µM | SK-OV-3 > 100 µM | LXFL 529 > 100 µM | HCC 2998 > 100 µM | DMS-114 52.5 µM | SK-MEL-28 > 100 µM | IGROV-1 > 100 µM | SF-295 > 100 µM | COLO 205 > 100 µM | A549 > 100 µM | HOP-62 > 100 µM | LOX IMVI > 100 µM | OVCAR-4 > 100 µM | OVCAR-5 > 100 µM | OVCAR-3 > 100 µM | SNB-78 > 100 µM | M19-MEL > 100 µM | NCI-H23 > 100 µM | 786-0 > 100 µM | SF-268 > 100 µM | UACC-62 > 100 µM | SK-MEL-2 > 100 µM | EKVX > 100 µM | Malme-3M > 100 µM | SN12C > 100 µM | HL-60 18.1 µM | KM12 > 100 µM | CCRF-CEM 16.1 µM | CAKI-1 > 100 µM | SK-MEL-5 38.8 µM | NCI-H522 14 µM | SNB-75 > 100 µM | K562 20.8 µM | KM-20L2 > 100 µM | UO-31 46.1 µM | XF498 > 100 µM | HT-29 76.7 µM | SF-539 > 100 µM | RPMI-8226 31.9 µM | A498 > 100 µM | HCT-116 92.9 µM | SW-620 47.4 µM | OVCAR-8 > 100 µM | TK-10 > 100 µM | SNB-19 > 100 µM | U-251 > 100 µM | DLD-1 > 100 µM | DMS-273 > 100 µM

N#C/C(=C/c1ccc([N+](=O)[O-])o1)c1ccccc1
inactive: MOLT-4 > 100 µM | SR > 100 µM | UACC-257 > 100 µM | M14 > 100 µM | ACHN > 100 µM | SK-OV-3 > 100 µM | LXFL 529 > 100 µM | HCC 2998 > 100 µM | DMS-114 > 100 µM | SK-MEL-28 > 100 µM | NCI-H226 > 100 µM | RXF 393 > 100 µM | SF-295 > 100 µM | COLO 205 > 100 µM | A549 > 100 µM | HOP-62 > 100 µM | LOX IMVI > 100 µM | OVCAR-4 > 100 µM | OVCAR-5 > 100 µM | HOP-18 > 100 µM | OVCAR-3 > 100 µM | SNB-78 > 100 µM | M19-MEL > 100 µM | NCI-H460 > 100 µM | NCI-H23 > 100 µM | 786-0 > 100 µM | SF-268 > 100 µM | UACC-62 > 100 µM | SK-MEL-2 > 100 µM | HOP-92 > 100 µM | EKVX > 100 µM | Malme-3M > 100 µM | SN12C > 100 µM | HL-60 > 100 µM | KM12 > 100 µM | CCRF-CEM > 100 µM | CAKI-1 > 100 µM | SK-MEL-5 > 100 µM | NCI-H522 > 100 µM | SNB-75 97.7 µM | K562 > 100 µM | KM-20L2 > 100 µM | UO-31 > 100 µM | HT-29 > 100 µM | SF-539 > 100 µM | RPMI-8226 > 100 µM | HCT-116 > 100 µM | SW-620 > 100 µM | OVCAR-8 > 100 µM | TK-10 > 100 µM | SNB-19 > 100 µM | U-251 > 100 µM | DLD-1 > 100 µM | DMS-273 > 100 µM
